Nine compounds from patent US9744164B2, “Neuroprotective polyphenol analogs” (Salk Institute for Biological Studies, priority 2011, dated 2017) can be followed below.

The assay deals with HT22 cells. Description: in vitro ischemia assay (HT22 cell IAA assay). To be noted: for increase in survival: 20 μM IAA, over the neuroprotective concentration range; for improvement of neuroprotective activity/potency over Fisetin: relative to Fisetin, in vitro ischemia. The assay is classed as cell-based, mouse. Here is the method:
For these studies, cultured HT22 mouse hippocampal cells were used as an in vitro stroke assay. HT22 cells were treated with iodoacetic acid (IAA), an irreversible inhibitor of glyceraldehyde 3-phosphate dehydrogenase (G3PDH) for 2 hr alone or in the presence of varying concentrations of Fisetin. G3PDH is an enzyme of the glycolysis pathway, which catalyzes the synthesis of 1,3-bisphosphoglycerate, a “high energy” intermediate used for the synthesis of ATP. Cell survival was measured using a standard colorimetric MTT (3-(4,5-dimethylthiazol-2-yl)-2,5-diphenyltetrazolium bromide) assay for cell survival MTT is a pale yellow substrate that is cleaved by living cells to yield a dark blue formazan product.
Cytotoxicity assay. Cell viability was determined by a modified version of 3-(4,5-dimethylthiazol-2-yl)-2,5-diphenyl tetrazolium bromide (MTT) assay based on the standard procedure (Maher, et al., Brain Research. (2007), supra). Cells were seeded onto 96-well microtiter plates at a density of 5×10^3 cells per well. For the in vitro ischemia assay, the next day, the medium was replaced with DMEM supplemented with 7.5% DFCS and the cells were treated with 20 μM iodoacetic acid (IAA) alone or in the presence of the different derivatives. After 2 hr the medium in each well was aspirated and replaced with fresh medium without IAA but containing the derivatives. 20 hr later, the medium in each well was aspirated and replaced with fresh medium containing 2.5 μg/ml MTT. After 4 hr of incubation at 37° C., the cells were solubilized with 100 μl of a solution containing 50% dimethylformamide and 20% SDS (pH 4.7). The absorbance at 570 nm was measured on the following day with a microplate reader (Molecular Devices). Results were confirmed by visual inspection of the wells. Controls included compound alone to test for toxicity and compound with no cells to test for interference with the assay chemistry.
For a primary screen, an in vitro ischemia model in combination with the HT22 nerve cell line (Maher, et al., Brain Research. (2007) 1173, 117-125) was chosen. […] To induce ischemia in the HT22 cells we used iodoacetic acid (IAA), a well-known, irreversible inhibitor of the glycolytic enzyme glyceraldehyde 3-phosphate dehydrogenase (G3PDH) (Winkler, et al., Exp. Eye Res. (2003) 76, 715-723). IAA has been used in a number of other studies to induce ischemia in nerve cells (Reshef, et al., Neurosci. Lett. (1997) 238, 37-40; Sperling, et al., Neursci. Lett. (2003) 351, 137-140; Rego, et al., Neurochem. Res. (1999) 24, 351-358; Sigalov, et al,. J. Mol. Neurosci. (2000) 15, 147-154; and Reiner, et al., Neurosci. Lett. (1990) 119, 175-178), including several recent screens for neuroprotective molecules (Biraboneye, et al., J. Med. Chem. (2009) 52 (14), 4358-4369; Biraboneye, et al., Chem. Med. Chem. (2010) 5 (1), 79-85). The changes following IAA treatment of neural cells are very similar to those seen in animal models of ischemic stroke (Lipton, et al., Physiol. Rev. (1999) 79, 1431-1568) and include alterations in membrane potential (Reiner, et al., Neurosci. Lett. (1990) 119, 175-178), breakdown of phospholipids (Taylor, et al., J. Pharmacol. Exp. Ther. (1996) 276, 1224-1231), loss of ATP (Winkler, et al., Exp. Eye Res. (2003) 76, 715-723; Sperling, et al., Neursci. Lett. (2003) 351, 137-140) and an increase in reactive oxygen species (ROS) (Taylor, et al., J. Pharmacol. Exp. Ther. (1996), supra; and Sperling, et al., Neursci. Lett. (2003) 351, 137-140).
The roles of the four different hydroxyl groups in the activity of Fisetin were studied. […] Cell viability was determined after 24 hr by the MTT assay. The ability to maintain GSH (GSH) was determined by treating HT22 cells with different doses of each derivative (1-10 μM) in the presence of 5 mM glutamate. After 24 hr cell extracts were prepared and analyzed for total GSH. Fisetin (10 μM) was used as a positive control. […]

On to `O=c1cc(-c2ccccc2)oc2cc(O)c(O)c(O)c12` [Baicalein, 5,6,7-trihydroxyflavone], for which the increase in survival result (HT22 cells) is listed as “greater than 80%”.
Consider `O=c1c(O)c(-c2ccc(O)c(O)c2)oc2ccccc12` [CMS-04P, reference compound], for which the “improvement of neuroprotective activity/potency over Fisetin” value is about 6 fold.
Consider `COc1cc(-c2ccc(O)c(O)c2)nc2ccccc12` [CMS-007, 4-methoxy-2-(3,4-dihydroxyphenyl)quinoline], for which the “improvement of neuroprotective activity/potency over Fisetin” value is about 75 fold.
`CCOc1cc(-c2ccc(O)c(O)c2)nc2ccccc12` [CMS-023, 4-ethoxy-2-(3,4-dihydroxyphenyl)quinoline]: the “improvement of neuroprotective activity relative to CMS-007” value is about 2 fold and the “improvement of neuroprotective activity/potency over Fisetin” value is given as about 140 fold.
Take `CC(C)Oc1cc(-c2ccc(O)c(O)c2)nc2ccccc12` [CMS-024, 4-isopropoxy-2-(3,4-dihydroxyphenyl)quinoline]: the “improvement of neuroprotective activity relative to CMS-007” value is listed as about 2 fold.
Turning to `COc1ccc(/C=C/C(=O)c2cc(C)c(C)cc2O)cc1OCc1ccccc1` [CMS-086, (E)-3-(3-(benzyloxy)-4-methoxyphenyl)-1-(2-hydroxy-4,5-dimethylphenyl)prop-2-en-1-one], where the note is “HT22 cells, 20 μM IAA 2 hr, viability by MTT after 24 hr, 'no' = no protection”, the “EC50 in vitro ischemia” value is reported as “no”.
Regarding `Oc1ccc(-c2cc(OC3CCCC3)c3ccccc3n2)cc1O` [CMS-121, 4-cyclopentyloxy-2-(3,4-dihydroxyphenyl)quinoline], the “improvement of neuroprotective activity/potency over Fisetin” value is on record as over 400 fold.
With `O=c1c(O)c(-c2ccc(N3CCCC3)c(O)c2)oc2c1ccc1ccccc12` [CMS-140, 3-hydroxy-2-(3-hydroxy-4-(pyrrolidin-1-yl)phenyl)-4H-benzo[h]chromen-4-one], the “improvement of neuroprotective activity/potency over Fisetin” value is on record as “up to 600 fold”.
Consider `O=c1c(O)c(-c2ccc(O)c(O)c2)oc2cc(O)ccc12` [Fisetin, 3,7,3′,4′-tetrahydroxy flavone], for which the increase in survival entry (HT22 cells) was “greater than 85%”.
